Assay results: ChEMBL document CHEMBL1255438, “Comparative activities of TR-700 (torezolid) against staphylococcal blood isolates collected in Spain” (2010)
Values after ≈ are worked out from the molar mass of the structure shown. Active and inactive are the calls of the source. The calls are words filed in the database; no cut-off is given here.

Legend:
Format in all cases: functional
[1] = tested on: Staphylococcus aureus; test: Antimicrobial activity against linezolid-susceptible Staphylococcus aureus by CLSI method
[2] = tested on: Staphylococcus aureus; test: Antimicrobial activity against linezolid-susceptible Staphylococcus aureus assessed as percent susceptible strain by CLSI method
[3] = tested on: Staphylococcus aureus; test: Antimicrobial activity against oxacillin-susceptible Staphylococcus aureus by CLSI method
[4] = tested on: Staphylococcus aureus; test: Antimicrobial activity against oxacillin-susceptible Staphylococcus aureus assessed as percent susceptible strain by CLSI method
[5] = tested on: Staphylococcus aureus; test: Antimicrobial activity against oxacillin-resistant Staphylococcus aureus by CLSI method
[6] = tested on: Staphylococcus aureus; test: Antimicrobial activity against linezolid-resistant Staphylococcus aureus by CLSI method
[7] = tested on: Staphylococcus aureus; test: Antimicrobial activity against linezolid-resistant Staphylococcus aureus assessed as percent susceptible strain by CLSI method
[8] = tested on: Staphylococcus; test: Antimicrobial activity against linezolid-susceptible coagulase-negative Staphylococcus by CLSI method
[9] = tested on: Staphylococcus; test: Antimicrobial activity against linezolid-susceptible coagulase-negative Staphylococcus assessed as percent susceptible strain by CLSI method
[10] = tested on: Staphylococcus aureus; test: Antimicrobial activity against linezolid-resistant Staphylococcus aureus assessed as inhibition of microbial growth at 16 ug/ml by CLSI method
[11] = tested on: Staphylococcus aureus; test: Antimicrobial activity against oxacillin-resistant Staphylococcus aureus assessed as inhibition of microbial growth at 4 ug/ml by CLSI method
[12] = tested on: Staphylococcus aureus; test: Antimicrobial activity against oxacillin-resistant Staphylococcus aureus assessed as inhibition of microbial growth at 2 ug/ml by CLSI method
[13] = tested on: Staphylococcus aureus; test: Antimicrobial activity against oxacillin-resistant Staphylococcus aureus assessed as inhibition of microbial growth at =< 0.25 ug/ml by CLSI method
[14] = tested on: Staphylococcus aureus; test: Antimicrobial activity against oxacillin-resistant Staphylococcus aureus assessed as inhibition of microbial growth at 1 ug/ml by CLSI method
[15] = tested on: Staphylococcus aureus; test: Antimicrobial activity against oxacillin-resistant Staphylococcus aureus assessed as inhibition of microbial growth at 0.5 ug/ml by CLSI method
[16] = tested on: Staphylococcus; test: Antimicrobial activity against oxacillin-susceptible coagulase-negative Staphylococcus aureus by CLSI method
[17] = Antimicrobial activity against oxacillin-susceptible coagulase-negative Staphylococcus aureus assessed as percent susceptible strain by CLSI method
[18] = tested on: Staphylococcus; test: Antimicrobial activity against oxacillin-resistant coagulase-negative Staphylococcus aureus by CLSI method
[19] = tested on: Staphylococcus; test: Antimicrobial activity against linezolid-resistant coagulase-negative Staphylococcus by CLSI method
[20] = tested on: Staphylococcus; test: Antimicrobial activity against linezolid-resistant coagulase-negative Staphylococcus assessed as percent susceptible strain by CLSI method
[21] = tested on: Staphylococcus aureus; test: Antimicrobial activity against linezolid-susceptible Staphylococcus aureus assessed as inhibition of microbial growth at =< 0.25 ug/ml by CLSI method
[22] = tested on: Staphylococcus aureus; test: Antimicrobial activity against linezolid-susceptible Staphylococcus aureus assessed as inhibition of microbial growth at 0.5 ug/ml by CLSI method
[23] = tested on: Staphylococcus aureus; test: Antimicrobial activity against linezolid-susceptible Staphylococcus aureus assessed as inhibition of microbial growth at 1 ug/ml by CLSI method
[24] = tested on: Staphylococcus aureus; test: Antimicrobial activity against linezolid-susceptible Staphylococcus aureus assessed as inhibition of microbial growth at 2 ug/ml by CLSI method
[25] = tested on: Staphylococcus aureus; test: Antimicrobial activity against linezolid-susceptible Staphylococcus aureus assessed as inhibition of microbial growth at 4 ug/ml by CLSI method
[26] = tested on: Staphylococcus aureus; test: Antimicrobial activity against oxacillin-susceptible Staphylococcus aureus assessed as inhibition of microbial growth at =< 0.25 ug/ml by CLSI method
[27] = tested on: Staphylococcus aureus; test: Antimicrobial activity against oxacillin-susceptible Staphylococcus aureus assessed as inhibition of microbial growth at 0.5 ug/ml by CLSI method
[28] = tested on: Staphylococcus aureus; test: Antimicrobial activity against oxacillin-susceptible Staphylococcus aureus assessed as inhibition of microbial growth at 1 ug/ml by CLSI method
[29] = tested on: Staphylococcus aureus; test: Antimicrobial activity against oxacillin-susceptible Staphylococcus aureus assessed as inhibition of microbial growth at 2 ug/ml by CLSI method
[30] = tested on: Staphylococcus aureus; test: Antimicrobial activity against oxacillin-susceptible Staphylococcus aureus assessed as inhibition of microbial growth at 4 ug/ml by CLSI method
[31] = tested on: Staphylococcus; test: Antimicrobial activity against linezolid-susceptible coagulase-negative Staphylococcus assessed as inhibition of microbial growth at =< 0.25 ug/ml by CLSI method
[32] = tested on: Staphylococcus; test: Antimicrobial activity against linezolid-susceptible coagulase-negative Staphylococcus assessed as inhibition of microbial growth at 0.5 ug/ml by CLSI method
[33] = tested on: Staphylococcus; test: Antimicrobial activity against linezolid-susceptible coagulase-negative Staphylococcus assessed as inhibition of microbial growth at 1 ug/ml by CLSI method
[34] = tested on: Staphylococcus; test: Antimicrobial activity against linezolid-susceptible coagulase-negative Staphylococcus assessed as inhibition of microbial growth at 2 ug/ml by CLSI method
[35] = tested on: Staphylococcus; test: Antimicrobial activity against linezolid-susceptible coagulase-negative Staphylococcus assessed as inhibition of microbial growth at 4 ug/ml by CLSI method
[36] = tested on: Staphylococcus aureus; test: Antimicrobial activity against oxacillin-susceptible coagulase-negative Staphylococcus aureus assessed as inhibition of microbial growth at =< 0.25 ug/ml by CLSI method
[37] = tested on: Staphylococcus aureus; test: Antimicrobial activity against oxacillin-susceptible coagulase-negative Staphylococcus aureus assessed as inhibition of microbial growth at 0.5 ug/ml by CLSI method
[38] = tested on: Staphylococcus aureus; test: Antimicrobial activity against oxacillin-susceptible coagulase-negative Staphylococcus aureus assessed as inhibition of microbial growth at 1 ug/ml by CLSI method
[39] = tested on: Staphylococcus aureus; test: Antimicrobial activity against oxacillin-susceptible coagulase-negative Staphylococcus aureus assessed as inhibition of microbial growth at 2 ug/ml by CLSI method
[40] = tested on: Staphylococcus aureus; test: Antimicrobial activity against oxacillin-resistant coagulase-negative Staphylococcus aureus assessed as inhibition of microbial growth at 1 ug/ml by CLSI method
[41] = tested on: Staphylococcus aureus; test: Antimicrobial activity against oxacillin-resistant coagulase-negative Staphylococcus aureus assessed as inhibition of microbial growth at 2 ug/ml by CLSI method
[42] = tested on: Staphylococcus aureus; test: Antimicrobial activity against oxacillin-resistant coagulase-negative Staphylococcus aureus assessed as inhibition of microbial growth at 4 ug/ml by CLSI method
[43] = tested on: Staphylococcus; test: Antimicrobial activity against linezolid-resistant coagulase-negative Staphylococcus assessed as inhibition of microbial growth at 16 ug/ml by CLSI method
[44] = tested on: Staphylococcus; test: Antimicrobial activity against linezolid-resistant coagulase-negative Staphylococcus assessed as inhibition of microbial growth at 32 ug/ml by CLSI method
[45] = tested on: Staphylococcus; test: Antimicrobial activity against linezolid-resistant coagulase-negative Staphylococcus assessed as inhibition of microbial growth at 64 ug/ml by CLSI method
[46] = tested on: Staphylococcus; test: Antimicrobial activity against linezolid-resistant coagulase-negative Staphylococcus assessed as inhibition of microbial growth at 128 ug/ml by CLSI method
[47] = tested on: Staphylococcus; test: Antimicrobial activity against linezolid-resistant coagulase-negative Staphylococcus assessed as inhibition of microbial growth at 256 ug/ml by CLSI method
[48] = tested on: Staphylococcus aureus; test: Antimicrobial activity against methicillin-resistant Staphylococcus aureus by CLSI method
[49] = tested on: Staphylococcus; test: Antimicrobial activity against Linezolid and methicillin-resistant coagulase-negative Staphylococcus by CLSI method

Q: For CC(=O)NC[C@H]1CN(c2ccc(N3CCOCC3)c(F)c2)C(=O)O1 [LINEZOLID], which MIC50 [1] is on record?
A: 2 µg/mL (≈ 5.93 µM)

Q: And the MIC90 [1]?
A: 2 µg/mL (≈ 5.93 µM)

Q: And the Activity [2]?
A: 100%

Q: And the MIC50 [3]?
A: 1 µg/mL (≈ 2.96 µM)

Q: What about the MIC90 [3] of the same molecule?
A: 2 µg/mL (≈ 5.93 µM)

Q: What about the Activity [4] of the same molecule?
A: 100%

Q: And the MIC50 [5]?
A: 2 µg/mL (≈ 5.93 µM)

Q: And the MIC90 [5]?
A: 4 µg/mL (≈ 11.9 µM)

Q: And the MIC50 [6]?
A: 16 µg/mL (≈ 47.4 µM)

Q: And the Activity [7]?
A: 0%

Q: And the MIC50 [8]?
A: 1 µg/mL (≈ 2.96 µM)

Q: And the MIC90 [8]?
A: 2 µg/mL (≈ 5.93 µM)

Q: What about the Activity [9] of the same molecule?
A: 100%

Q: What about the inhibition at 16 µg/mL [10] of the same molecule?
A: 100%

Q: What about the inhibition at 4 µg/mL [11] of the same molecule?
A: 100%

Q: What about the inhibition at 2 µg/mL [12] of the same molecule?
A: 84.6%

Q: And the “inhibition (INH)” value [13]?
A: 2%

Q: What about the inhibition at 1 µg/mL [14] of the same molecule?
A: 40.5%

Q: What about the inhibition at 0.5 µg/mL [15] of the same molecule?
A: 4%

Q: What about the MIC50 [16] of the same molecule?
A: 1 µg/mL (≈ 2.96 µM)

Q: What about the MIC90 [16] of the same molecule?
A: 2 µg/mL (≈ 5.93 µM)

Q: And the Activity [17]?
A: 100%

Q: What about the MIC50 [18] of the same molecule?
A: 1 µg/mL (≈ 2.96 µM)

Q: What about the MIC90 [18] of the same molecule?
A: 2 µg/mL (≈ 5.93 µM)

Q: What about the MIC50 [19] of the same molecule?
A: 16 µg/mL (≈ 47.4 µM)

Q: What about the Activity [20] of the same molecule?
A: 0%

Q: What about the “inhibition (INH)” value [21] of the same molecule?
A: 1.3%

Q: What about the inhibition at 0.5 µg/mL [22] of the same molecule?
A: 2.4%

Q: What about the inhibition at 1 µg/mL [23] of the same molecule?
A: 45.2%

Q: And the inhibition at 2 µg/mL [24]?
A: 91.1%

Q: And the inhibition at 4 µg/mL [25]?
A: 100%

Q: What about the “inhibition (INH)” value [26] of the same molecule?
A: 0.5%

Q: And the inhibition at 0.5 µg/mL [27]?
A: 0.5%

Q: And the inhibition at 1 µg/mL [28]?
A: 51%

Q: And the inhibition at 2 µg/mL [29]?
A: 99%

Q: And the inhibition at 4 µg/mL [30]?
A: 100%

Q: And the “inhibition (INH)” value [31]?
A: 3%

Q: And the inhibition at 0.5 µg/mL [32]?
A: 8%

Q: And the inhibition at 1 µg/mL [33]?
A: 80.4%

Q: What about the inhibition at 2 µg/mL [34] of the same molecule?
A: 99%

Q: What about the inhibition at 4 µg/mL [35] of the same molecule?
A: 100%

Q: And the “inhibition (INH)” value [36]?
A: 4.9%

Q: And the inhibition at 0.5 µg/mL [37]?
A: 9.8%

Q: What about the inhibition at 1 µg/mL [38] of the same molecule?
A: 75.6%

Q: What about the inhibition at 2 µg/mL [39] of the same molecule?
A: 100%

Q: And the inhibition at 1 µg/mL [40]?
A: 81.6%

Q: And the inhibition at 2 µg/mL [41]?
A: 98.7%

Q: What about the inhibition at 4 µg/mL [42] of the same molecule?
A: 100%

Q: And the inhibition at 16 µg/mL [43]?
A: 60%

Q: And the inhibition at 32 µg/mL [44]?
A: 60%

Q: What about the inhibition at 64 µg/mL [45] of the same molecule?
A: 80%

Q: What about the inhibition at 128 µg/mL [46] of the same molecule?
A: 80%

Q: And the inhibition at 256 µg/mL [47]?
A: 100%

Q: What about the MIC [48] of the same molecule?
A: 16 µg/mL (≈ 47.4 µM)

Q: For CCCCCCCCCC(=O)N[C@@H](Cc1c[nH]c2ccccc12)C(=O)N[C@H](CC(N)=O)C(=O)N[C@@H](CC(=O)O)C(=O)N[C@@H]1C(=O)NCC(=O)N[C@@H](CCCN)C(=O)N[C@@H](CC(=O)O)C(=O)N[C@H](C)C(=O)N[C@@H](CC(=O)O)C(=O)NCC(=O)N[C@H](CO)C(=O)N[C@@H]([C@H](C)CC(=O)O)C(=O)N[C@@H](CC(=O)c2ccccc2N)C(=O)O[C@@H]1C, which MIC50 [1] is on record?
A: 0.25 µg/mL (≈ 0.154 µM)

Q: What about the MIC90 [1] of the same molecule?
A: 0.5 µg/mL (≈ 0.309 µM)

Q: And the Activity [2]?
A: 100%

Q: And the MIC50 [3]?
A: 0.25 µg/mL (≈ 0.154 µM)

Q: And the MIC90 [3]?
A: 0.5 µg/mL (≈ 0.309 µM)

Q: What about the Activity [4] of the same molecule?
A: 100%

Q: And the MIC50 [5]?
A: 0.5 µg/mL (≈ 0.309 µM)

Q: What about the MIC90 [5] of the same molecule?
A: 0.5 µg/mL (≈ 0.309 µM)

Q: What about the MIC50 [6] of the same molecule?
A: 0.5 µg/mL (≈ 0.309 µM)

Q: What about the MIC50 [8] of the same molecule?
A: 0.25 µg/mL (≈ 0.154 µM)

Q: What about the MIC90 [8] of the same molecule?
A: 0.5 µg/mL (≈ 0.309 µM)

Q: And the Activity [9]?
A: 100%

Q: What about the MIC50 [16] of the same molecule?
A: 0.25 µg/mL (≈ 0.154 µM)

Q: And the MIC90 [16]?
A: 0.5 µg/mL (≈ 0.309 µM)

Q: What about the Activity [17] of the same molecule?
A: 100%

Q: And the MIC50 [18]?
A: 0.25 µg/mL (≈ 0.154 µM)

Q: What about the MIC90 [18] of the same molecule?
A: 0.5 µg/mL (≈ 0.309 µM)

Q: And the MIC50 [19]?
A: 0.5 µg/mL (≈ 0.309 µM)

Q: And the Activity [48]?
A: Active

Q: What about the MIC [49] of the same molecule?
A: 0.5 µg/mL (≈ 0.309 µM)
